The values that follow come from EPA's ToxRefDB 2.

Series [1] deals with rat. The following applies: Carcinogenicity, other, Oral, Feed, dose end: 24 month, group: systemic.
For series [2], the system named is rat. To be noted: Multigenerational reproductive toxicity study, wistar, Oral, Feed, dose end: 2 generation.
Series [3] relates to mouse. To be noted: Carcinogenicity; other; Oral; Feed; dose end: 18 month; group: systemic; systemic / in life observation / body weight / body weight + systemic / in life observation / body weight / body weight gain.
Series [4] concerns dog. To be noted: Chronic toxicity, beagle, Oral, Feed, dose end: 373 day, group: systemic.
Series [5] has as its system dog. To be noted: Chronic toxicity; beagle; Oral; Feed; dose end: 371 day; group: systemic; systemic / clinical chemistry / alanine aminotransferase (alt/sgpt) / alanine aminotransferase (alt/sgpt) + systemic / clinical chemistry / ….
Series [6] has as its system mouse. The following applies: Subchronic oral toxicity in rodents, b6c3f1, Feed, dose end: 90 day, group: systemic.
The subject of series [7] is dog. To be noted: Subchronic oral toxicity in nonrodent, beagle, Feed, dose end: 100 day, group: systemic.
For series [8], the system named is rat. To be noted: Prenatal developmental toxicity study, wistar, Oral, Gavage/Intubation, dose end: 15 GD.
Series [9] relates to rat. The following applies: Chronic toxicity, wistar, Oral, Feed, dose end: 24 month, group: systemic.
Series [10] relates to rat. To be noted: Subchronic oral toxicity in rodents, wistar, Feed, dose end: 3 month, group: systemic.
In series [11] the test system is rat. To be noted: Subchronic oral toxicity in rodents, other, Gavage/Intubation, dose end: 90 day, group: systemic, systemic / hematology / erythrocyte (rbc) count differential / erythrocyte (rbc) + systemic / hematology / hematocrit (hct) / hematocrit (….
Series [12] relates to dog. To be noted: Chronic toxicity, beagle, Oral, Feed, dose end: 52 week, group: systemic.
For series [13], the system named is mouse. The following applies: Subchronic oral toxicity in rodents, other, Feed, dose end: 90 day, group: systemic.
Series [14] concerns mouse. To be noted: Combined chronic toxicity/carcinogenicity; Oral; Feed; dose end: 104 week; group: systemic; systemic / in life observation / water consumption / water consumption + systemic / pathology gross / full gross necropsy / abdominal cavity….
Series [15] concerns dog. The following applies: Subchronic oral toxicity in nonrodent, beagle, Feed, dose end: 90 day, group: systemic.
For series [16], the system named is rat. The following applies: Subchronic oral toxicity in rodents, sprague dawley, Feed, dose end: 90 day, group: systemic.
Series [17] has as its system rat. To be noted: Multigenerational reproductive toxicity study, sprague dawley, Inhalation, Whole-Body, dose end: 2 generation.
The test system of series [18] is rat. To be noted: Combined chronic toxicity/carcinogenicity; sprague dawley; Oral; Feed; dose end: 104 week; group: systemic; systemic / in life observation / body weight / body weight + systemic / in life observation / body weight / body weight gain + systemic / in….
Series [19] concerns rat. The following applies: Prenatal developmental toxicity study; wistar; Inhalation; Whole-Body; dose end: 19 GD; group: maternal; systemic / pathology gross / kidney / [other].
The test system of series [20] is rat. The following applies: Chronic toxicity, sprague dawley, Oral, Feed, dose end: 4 week, group: systemic.
Series [21] concerns rat. To be noted: Subchronic dermal toxicity, sprague dawley, Topical, dose end: 13 week, group: systemic.
Series [22] deals with rat. To be noted: Subchronic oral toxicity in rodents, sprague dawley, Gavage/Intubation, dose end: 13 week, group: systemic.
The mark [23] stands for this setting: systemic / pathology microscopic / liver / polymorphism.
Setting [24] is: group: offspring, systemic / in life observation / body weight / offspring (pup) weight + systemic / in life observation / body weight / offspring (pup) ….
[25] abbreviates: group: parental, systemic / in life observation / body weight / body weight + systemic / in life observation / body weight / body weight gain + systemic / in….
Where [26] appears, read: systemic / pathology gross / urinary bladder / foci.
The mark [27] stands for this setting: systemic / pathology microscopic / heart / vacuolization + systemic / pathology microscopic / liver / hypertrophy.
Setting [28] is: systemic / pathology microscopic / heart / vacuolization + systemic / pathology microscopic / liver / hypertrophy + systemic / clinical ….
The mark [29] stands for this setting: systemic / pathology gross / prostate / reduced size.
Setting [30] is: group: developmental, developmental / developmental malformation / bone / unossified + developmental / developmental malformation / ureter / hydroureter + ….
The mark [31] stands for this setting: group: maternal, systemic / in life observation / food consumption / food consumption + reproductive / reproductive performance / resorptions / resorptions….
The mark [32] stands for this setting: systemic / pathology microscopic / liver / adenoma/carcinoma combined + systemic / pathology microscopic / liver / carcinoma + systemic / in….
Setting [33] is: systemic / clinical chemistry / albumin / albumin + systemic / clinical chemistry / creatinine / creatinine + systemic / clinical chemistry….
Setting [34] is: systemic / clinical chemistry / creatinine / creatinine.
The mark [35] stands for this setting: systemic / clinical chemistry / alanine aminotransferase (alt/sgpt) / alanine aminotransferase (alt/sgpt) + systemic / clinical chemistry / ….
Where [36] appears, read: systemic / pathology microscopic / liver / hypertrophy.
Where [37] appears, read: systemic / organ weight / ovary / absolute + systemic / organ weight / ovary / relative to body weight.
Setting [38] is: systemic / clinical chemistry / cholesterol / cholesterol + systemic / organ weight / kidney / absolute + systemic / organ weight / kidney….
The mark [39] stands for this setting: systemic / organ weight / liver / absolute + systemic / organ weight / liver / relative to body weight + systemic / pathology microscopic / ….
[40] abbreviates: group: offspring, systemic / in life observation / body weight / offspring (pup) weight.
The mark [41] stands for this setting: group: parental, systemic / in life observation / body weight / body weight.
Setting [42] is: group: reproductive, reproductive / reproductive performance / pregnancy / pregnancy.
Where [43] appears, read: systemic / in life observation / body weight / body weight gain + systemic / in life observation / food consumption / food consumption.
Setting [44] is: systemic / in life observation / clinical signs / erythema + systemic / in life observation / clinical signs / body surface staining + ….
The mark [45] stands for this setting: systemic / in life observation / clinical signs / erythema + systemic / pathology microscopic / skin / hyperplasia + systemic / pathology ….
Setting [46] is: systemic / pathology microscopic / stomach / infiltration cellular + systemic / pathology gross / stomach / discolored + systemic / ….
Setting [47] is: systemic / pathology microscopic / stomach / infiltration cellular + systemic / pathology gross / stomach / prominent limiting ridge + ….

As to `CC/C(=N\OC/C=C/Cl)C1=C(O)CC(C2CCOCC2)CC1=O` (centres undefined) [Tepraloxydim], the LEL in the series on rat [1] (systemic / pathology microscopic / liver / eosinophilic focus + systemic / pathology microscopic / liver / infiltration cellular) stood at 30 mg/kg/day; in the series on rat [2] (setting [24]), 267 mg/kg/day; in the series on rat [2] (setting [25]) it was 253 mg/kg/day; in the series on mouse [3] it was 52 mg/kg/day; in the series with dog [4] (setting [26]), 3 mg/kg/day; with dog [5], 248 mg/kg/day. Moreover, the LEL in the series on mouse [6] (setting [27]) came to 310 mg/kg/day; in the series with dog [7] (setting [29]) it was 12.9 mg/kg/day; in the series on rat [8] (setting [30]), 120 mg/kg/day; in the series on rat [8] (setting [31]), 360 mg/kg/day; in the series on rat [9] (systemic / pathology microscopic / liver / carcinoma), 29 mg/kg/day; with rat [10] (setting [34]), 22 mg/kg/day. The NEL was 5 mg/kg/day in the series on rat [1] (systemic / pathology microscopic / liver / eosinophilic focus + systemic / pathology microscopic / liver / infiltration cellular + systemic…); 50.3 mg/kg/day with rat [2] (setting [24]); 50.9 mg/kg/day in the series with rat [2] (setting [25]); < 52 mg/kg/day in the series with mouse [3]; < 3 mg/kg/day in the series on dog [4] (setting [26]); < 248 mg/kg/day with dog [5]. Further, the NEL is 82 mg/kg/day in the series on mouse [6] (setting [28]); < 12.9 mg/kg/day with dog [7] (setting [29]); 40 mg/kg/day in the series with rat [8] (setting [30]); 120 mg/kg/day with rat [8] (setting [31]); 5 mg/kg/day in the series on rat [9] (setting [32]); < 22 mg/kg/day with rat [10] (setting [34]). The LOAEL with rat [1] (setting [23]) was determined as 6 mg/kg/day; in the series on rat [2] (setting [24]), 267 mg/kg/day; with rat [2] (setting [25]), 253 mg/kg/day; with mouse [3] it was 52 mg/kg/day; in the series on dog [4] (systemic / clinical chemistry / cholesterol / cholesterol + systemic / clinical chemistry / creatinine / creatinine + systemic / clinical …) it was 56 mg/kg/day; with dog [5], 248 mg/kg/day. Further, the LOAEL with mouse [6] (setting [27]) was found to be 310 mg/kg/day; in the series on dog [7] (systemic / organ weight / liver / absolute + systemic / organ weight / liver / relative to body weight) it was 63.3 mg/kg/day; in the series on rat [8] (setting [30]), 120 mg/kg/day; with rat [8] (group: maternal, systemic / in life observation / food consumption / food consumption), 360 mg/kg/day; in the series on rat [9] (setting [32]), 154 mg/kg/day; in the series with rat [10] (setting [33]) it was 223 mg/kg/day. Also, the NOAEL was < 6 mg/kg/day in the series on rat [1] (setting [23]); 50.3 mg/kg/day with rat [2] (setting [24]); 50.9 mg/kg/day in the series with rat [2] (setting [25]); < 52 mg/kg/day with mouse [3]; 11.5 mg/kg/day in the series with dog [4] (systemic / pathology gross / urinary bladder / foci + systemic / clinical chemistry / cholesterol / cholesterol + systemic / clinical …); < 248 mg/kg/day with dog [5]. Besides, the no-observed-adverse-effect level (NOAEL) was 82 mg/kg/day with mouse [6] (setting [28]); 12.9 mg/kg/day with dog [7] (systemic / organ weight / liver / absolute + systemic / organ weight / liver / relative to body weight + systemic / clinical chemistry / …); 40 mg/kg/day with rat [8] (setting [30]); 120 mg/kg/day in the series with rat [8] (setting [31]); 29 mg/kg/day with rat [9] (setting [32]); 22 mg/kg/day in the series with rat [10] (setting [33]).
For the molecule `[Na+].[O-][Cl+2]([O-])[O-]` [Sodium chlorate], in the series with rat [11], the LEL came to 1000 mg/kg/day, the lowest-observed-adverse-effect level (LOAEL) was 1000 mg/kg/day, the NEL came to 100 mg/kg/day and the no-observed-adverse-effect level (NOAEL) stood at 100 mg/kg/day.
For `COC(=O)c1ccccc1CS(=O)(=O)NC(=O)Nc1nc(OC)cc(OC)n1` [Bensulfuron-methyl], the lowest-observed-adverse-effect level (LOAEL) stood at 223 mg/kg/day with dog [12] (setting [35]); 387 mg/kg/day in the series with mouse [13] (setting [36]); 455 mg/kg/day in the series with mouse [14]; 340 mg/kg/day in the series with dog [15] (setting [35]); 474 mg/kg/day in the series with rat [16] (setting [38]). In addition, the NEL was 1.4 mg/kg/day in the series on dog [12] (setting [35]); < 38.9 mg/kg/day in the series on mouse [13] (setting [36]); 226 mg/kg/day in the series with mouse [14]; < 3.5 mg/kg/day with dog [15] (setting [37]); < 7.5 mg/kg/day in the series with rat [16] (setting [39]). Also, the NOAEL in the series on dog [12] (setting [35]) worked out at 19.9 mg/kg/day; in the series on mouse [13] (systemic / pathology microscopic / liver / hypertrophy + systemic / organ weight / liver / absolute + systemic / organ weight / liver / …) it was 132 mg/kg/day; in the series on mouse [14] it was 226 mg/kg/day; in the series with dog [15] (setting [35]), 32.1 mg/kg/day; in the series with rat [16] (setting [38]), 93 mg/kg/day. Further, the LEL in the series on dog [12] (systemic / organ weight / spleen / absolute + systemic / organ weight / spleen / relative to body weight) turned out to be 19.9 mg/kg/day; with mouse [13] (setting [36]) it was 38.9 mg/kg/day; in the series on mouse [14], 455 mg/kg/day; in the series on dog [15] (setting [37]), 3.5 mg/kg/day; in the series with rat [16] (setting [39]), 7.5 mg/kg/day.
For the molecule `CBr` [Methyl bromide], the LEL was 30 ppm with rat [17] (setting [40]); 90 ppm in the series on rat [17] (group: parental, systemic / in life observation / body weight / body weight + systemic / organ weight / liver / relative to body weight + systemic / organ …); 30 ppm with rat [17] (setting [42]); 11.1 mg/kg/day in the series on rat [18]; 70 ppm with rat [19]; 0.825 mg/kg/day in the series with rat [20] (systemic / in life observation / food consumption / food consumption). The LOAEL in the series on rat [17] (setting [40]) is 30 ppm; in the series on rat [17] (setting [41]) it was 90 ppm; with rat [17] (setting [42]) it was 30 ppm; in the series on rat [18], 11.1 mg/kg/day; in the series on rat [19], 70 ppm; in the series with rat [20] (systemic / in life observation / body weight / body weight gain), 7.59 mg/kg/day. Moreover, the NEL with rat [17] (setting [40]) amounted to 3 ppm; in the series with rat [17] (group: parental, systemic / organ weight / liver / relative to body weight), 30 ppm; in the series with rat [17] (setting [42]), 3 ppm; in the series with rat [18], 2.2 mg/kg/day; with rat [19] it was 20 ppm; in the series on rat [20] (setting [43]) it was 0.082 mg/kg/day. For the same molecule, the no observed adverse effect level (NOAEL) in the series with rat [17] (setting [40]) was 3 ppm; in the series with rat [17] (setting [41]), 30 ppm; with rat [17] (setting [42]), 3 ppm; in the series with rat [18] it was 2.2 mg/kg/day; in the series with rat [19], 20 ppm; with rat [20] (setting [43]), 0.825 mg/kg/day.
Regarding `OCCN1CN(CCO)CN(CCO)C1` [1,3,5-Triazine-1,3,5(2H,4H,6H)-triethanol], in the series on rat [21] (setting [44]), the LEL stood at 5 mg/kg/day and the NEL was < 5 mg/kg/day. Also, in the series with rat [21] (setting [45]), the LOAEL is 50 mg/kg/day and the NOAEL is 5 mg/kg/day. Moreover, in the series with rat [22] (setting [46]), the NEL was 50 mg/kg/day and the NOAEL was found to be 50 mg/kg/day. Besides, in the series on rat [22] (setting [47]), the LEL worked out at 100 mg/kg/day and the LOAEL was determined as 100 mg/kg/day.
